According to ChEMBL document CHEMBL1201862, “PubChem BioAssay data set” (2004):
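Growth conditions: 96-well plates. Treatment: test compound, 48 hours, 5 concentrations. Analysis: linear interpolation between bracketing concentrations; unreached endpoints set to highest concentration. GI50 = concentration required for 50% inhibition of growth.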 Activity calls are given as the source filed them. Cut-off read from the data, not from the text of the source: active = GI50 up to about 1.1 µM and inactive = higher.

How the values were obtained:
Experiment in all cases: inhibition of tumour cell growth, NCI panel, 48 h
A498 = test system: A498
SW-620 = test system: SW-620
SK-MEL-2 = test system: SK-MEL-2
CCRF-CEM = test system: CCRF-CEM
MOLT-4 = test system: MOLT-4
EKVX = test system: EKVX
HCC 2998 = test system: HCC 2998
A549 = test system: A549
U-251 = test system: U-251
SN12C = test system: SN12C
HL-60 = test system: HL-60
KM12 = test system: KM12
ACHN = test system: ACHN
OVCAR-5 = test system: OVCAR-5
OVCAR-3 = test system: OVCAR-3
MDA-MB-435 = test system: MDA-MB-435
PC-3 = test system: PC-3
NCI/ADR-RES = test system: NCI/ADR-RES
Hs-578T = test system: Hs-578T

SMILES	GI50 (A498)	GI50 (SW-620)	GI50 (SK-MEL-2)	GI50 (CCRF-CEM)	GI50 (MOLT-4)	GI50 (EKVX)	GI50 (HCC 2998)	GI50 (A549)	GI50 (U-251)	GI50 (SN12C)	GI50 (HL-60)	GI50 (KM12)	GI50 (ACHN)	GI50 (OVCAR-5)	GI50 (OVCAR-3)	GI50 (MDA-MB-435)	GI50 (PC-3)	GI50 (NCI/ADR-RES)	GI50 (Hs-578T)
C/C(=N\N(c1ccccc1)c1ccccc1)c1c(O)cc(C)oc1=O	> 100 µM (inactive)	> 100 µM (inactive)	> 100 µM (inactive)	89.7 µM (inactive)	54.2 µM (inactive)	> 100 µM (inactive)	> 100 µM (inactive)	75 µM (inactive)	22.4 µM (inactive)	> 100 µM (inactive)	> 10 µM (inactive)	> 100 µM (inactive)	> 100 µM (inactive)						
C=C1Cc2cc(OC)c(OC)c(OC)c2-c2ccc(SC)c(=O)cc21	< 0.01 µM (active)	< 0.01 µM (active)	< 0.01 µM (active)	< 0.01 µM (active)	< 0.01 µM (active)	1.55 µM (inactive)	< 0.01 µM (active)	< 0.01 µM (active)	< 0.01 µM (active)	< 0.01 µM (active)	< 0.01 µM (active)	< 0.01 µM (active)	< 0.01 µM (active)	0.378 µM (active)	< 0.01 µM (active)				
[N-]=[N+]=CC(=O)OC1CCOCC1	> 100 µM (inactive)	> 100 µM (inactive)	> 100 µM (inactive)	> 100 µM (inactive)	> 100 µM (inactive)	> 100 µM (inactive)	> 100 µM (inactive)		> 100 µM (inactive)	> 100 µM (inactive)	> 100 µM (inactive)	> 100 µM (inactive)	> 100 µM (inactive)	> 100 µM (inactive)	> 100 µM (inactive)	> 100 µM (inactive)	> 100 µM (inactive)		
Cc1ccc(S(=O)(=O)N[C@H](C(=O)O)c2ccccc2)cc1	> 100 µM (inactive)	> 100 µM (inactive)	> 100 µM (inactive)	> 100 µM (inactive)	58.6 µM (inactive)	> 100 µM (inactive)	> 100 µM (inactive)	> 100 µM (inactive)	> 100 µM (inactive)	> 100 µM (inactive)	> 100 µM (inactive)	> 100 µM (inactive)	> 100 µM (inactive)	> 100 µM (inactive)	> 100 µM (inactive)				
CCOc1ccc(N2C(=O)NC3(c4ccccc4)N(C)C(=O)N(C)C23c2ccccc2)cc1 (stereo not drawn)	> 100 µM (inactive)	> 100 µM (inactive)	> 100 µM (inactive)	> 100 µM (inactive)	30.4 µM (inactive)	> 100 µM (inactive)		56.8 µM (inactive)	> 100 µM (inactive)	> 100 µM (inactive)	75.2 µM (inactive)	55.3 µM (inactive)	> 100 µM (inactive)	> 100 µM (inactive)	> 100 µM (inactive)	> 100 µM (inactive)	41 µM (inactive)	63.1 µM (inactive)	
CC1(C)CC(=O)c2c(N)n[nH]c2C1	> 100 µM (inactive)	> 100 µM (inactive)	> 100 µM (inactive)	> 100 µM (inactive)	> 100 µM (inactive)	> 100 µM (inactive)	> 100 µM (inactive)	> 100 µM (inactive)	> 100 µM (inactive)	> 100 µM (inactive)	> 100 µM (inactive)	> 100 µM (inactive)	> 100 µM (inactive)	> 100 µM (inactive)	> 100 µM (inactive)	> 100 µM (inactive)	> 100 µM (inactive)	> 100 µM (inactive)	
Cc1cc(C(=O)NCCN(C)C)c2nc3ccccc3nc2c1	3.92 µM (inactive)	1.97 µM (inactive)	4.33 µM (inactive)		0.128 µM (active)	8.26 µM (inactive)	6.38 µM (inactive)	3.88 µM (inactive)	5.82 µM (inactive)	3.45 µM (inactive)	3.41 µM (inactive)	3.91 µM (inactive)	2.22 µM (inactive)	7.43 µM (inactive)	5.71 µM (inactive)				
CCCCCCCCCCCC(=O)OCC1OC(n2cc(F)c(=O)[nH]c2=O)C(NC(=O)OCc2ccccc2)C(O)C1O (stereo not drawn)	20.1 µM (inactive)	20.6 µM (inactive)	19.1 µM (inactive)	17.6 µM (inactive)	21.2 µM (inactive)	30.5 µM (inactive)	18.4 µM (inactive)	20.8 µM (inactive)	19 µM (inactive)	18.5 µM (inactive)	20.6 µM (inactive)	21.3 µM (inactive)	57.4 µM (inactive)		25 µM (inactive)				
O=C1C(c2ccccc2)=C(c2ccccc2)[C@H](c2ccccc2)[C@]1(Cc1nnn(-c2ccc([N+](=O)[O-])cc2)c1N1CCOCC1)c1ccccc1	> 37.5 µM (inactive)	> 37.5 µM (inactive)		> 37.5 µM (inactive)	12.1 µM (inactive)	> 37.5 µM (inactive)	> 37.5 µM (inactive)	> 37.5 µM (inactive)	> 37.5 µM (inactive)	> 37.5 µM (inactive)	> 37.5 µM (inactive)		14.5 µM (inactive)		9.93 µM (inactive)				
N#CC1C2CCC3(CC2CCN1C(=O)c1ccccc1)OCCO3 (stereo not drawn)	> 100 µM (inactive)	> 100 µM (inactive)	2.37 µM (inactive)	> 100 µM (inactive)	> 100 µM (inactive)	> 100 µM (inactive)	> 100 µM (inactive)	> 100 µM (inactive)	> 100 µM (inactive)	> 100 µM (inactive)	> 100 µM (inactive)	> 100 µM (inactive)	> 100 µM (inactive)	> 100 µM (inactive)	> 100 µM (inactive)				
CC1=CC(=O)NP(=O)(Oc2ccc(Cl)cc2)N1 (stereo not drawn)	> 100 µM (inactive)	> 100 µM (inactive)	> 100 µM (inactive)	> 100 µM (inactive)	> 100 µM (inactive)	> 100 µM (inactive)		> 100 µM (inactive)	> 100 µM (inactive)	> 100 µM (inactive)	55.6 µM (inactive)	> 100 µM (inactive)	> 100 µM (inactive)	> 100 µM (inactive)	> 100 µM (inactive)				
COc1cc2c(cc1OC)[C@]1(O)C(=O)c3ccc4c(c3O[C@@H]1CO2)C[C@H](C(C)(C)O)O4	45.8 µM (inactive)	> 100 µM (inactive)	> 100 µM (inactive)	68.1 µM (inactive)	48.9 µM (inactive)	10.3 µM (inactive)	> 100 µM (inactive)	> 100 µM (inactive)	> 100 µM (inactive)		24.9 µM (inactive)	> 100 µM (inactive)	15.1 µM (inactive)	> 100 µM (inactive)	74.3 µM (inactive)				
Fc1cc(-c2ncc(Cl)cc2Cl)c2cccccc1-2						> 100 µM (inactive)	> 100 µM (inactive)	> 100 µM (inactive)				> 100 µM (inactive)	> 100 µM (inactive)	> 100 µM (inactive)	> 100 µM (inactive)		> 100 µM (inactive)	> 100 µM (inactive)	> 100 µM (inactive)
O=C(CN(Cc1ccccc1)Cc1ccccc1)N1CCc2c([nH]c3ccccc23)C1c1cccnc1 (stereo not drawn)	16.7 µM (inactive)	5.65 µM (inactive)		4.11 µM (inactive)	2.26 µM (inactive)	7.71 µM (inactive)	13.2 µM (inactive)	4.59 µM (inactive)	6.37 µM (inactive)	2.71 µM (inactive)	1.71 µM (inactive)	4.14 µM (inactive)	7.64 µM (inactive)	7.38 µM (inactive)	5.82 µM (inactive)				
CC(Oc1ccc(OCC2CCCCC2)cc1)C(=O)OCC(=O)c1ccc(-c2ccccc2)cc1 (stereo not drawn)	> 100 µM (inactive)		> 100 µM (inactive)	> 100 µM (inactive)	> 100 µM (inactive)		> 100 µM (inactive)	> 100 µM (inactive)	> 100 µM (inactive)	> 100 µM (inactive)	> 100 µM (inactive)	> 100 µM (inactive)	> 100 µM (inactive)		> 100 µM (inactive)				
Cc1cccc2c1Oc1ncccc1C2NC(=O)CN(C)C (stereo not drawn)		> 10 µM (inactive)	> 10 µM (inactive)	> 10 µM (inactive)	> 10 µM (inactive)	> 10 µM (inactive)	> 10 µM (inactive)	> 10 µM (inactive)	> 10 µM (inactive)	> 10 µM (inactive)	> 10 µM (inactive)	> 10 µM (inactive)	> 10 µM (inactive)	> 10 µM (inactive)	> 10 µM (inactive)	> 10 µM (inactive)	> 10 µM (inactive)	> 10 µM (inactive)	
O=C(O)CSc1nnc2c3ccccc3c3ccccc3c2n1	> 100 µM (inactive)	42.7 µM (inactive)	> 100 µM (inactive)			63 µM (inactive)	52.6 µM (inactive)	49.5 µM (inactive)	46.8 µM (inactive)	38.9 µM (inactive)		42 µM (inactive)	53.6 µM (inactive)	> 100 µM (inactive)	33.3 µM (inactive)	52 µM (inactive)	50.2 µM (inactive)	> 100 µM (inactive)	70.6 µM (inactive)
COCC(=O)CP(=O)(OC)OC	> 100 µM (inactive)	> 100 µM (inactive)	> 100 µM (inactive)	> 100 µM (inactive)	> 100 µM (inactive)	> 100 µM (inactive)		> 100 µM (inactive)	> 100 µM (inactive)	> 100 µM (inactive)	> 100 µM (inactive)	> 100 µM (inactive)	> 100 µM (inactive)	> 100 µM (inactive)	> 100 µM (inactive)				
CC1=C(C(=O)NCc2ccccc2)C(c2ccc([N+](=O)[O-])cc2)C(C(=O)NCc2ccccc2)=C(C)N1	86.1 µM (inactive)	63.7 µM (inactive)	30.8 µM (inactive)			> 100 µM (inactive)	39.8 µM (inactive)	31.9 µM (inactive)	40.3 µM (inactive)	76 µM (inactive)	21.2 µM (inactive)	34.7 µM (inactive)	27.4 µM (inactive)	25.4 µM (inactive)	46.5 µM (inactive)				
